Test results from PMC11898701, “Evaluating Therapeutic Efficacy of the Vascular Disrupting Agent OXi8007 Against Kidney Cancer in Mice” (Cancers, 2025).

How the values were obtained:
[1] = system: orthotopic XP258 human tumor xenografts; test: Long-term therapy of XP258 human tumor xenografts; type: in vivo, mouse; conditions: XP258 in NOD/SCID mice; OXi8007 250 mg/kg IP twice weekly, cabozantinib 3 mg/kg oral daily
From the text: The animal procedures were approved by the UT Southwestern Medical Center Institutional Animal Care and Use Committee under APNs 2017-102152 and 2018-102344-CORE. Renca-luc orthotopic tumors were induced by inserting tumor tissue (~1 mm^3) harvested from a donor mouse into the right kidney of syngeneic BALB/c mice (age 8 weeks, male and female; Envigo, Indianapolis, IN, USA), as described previously. Orthotopic XP258 tumors (derived from a patient with pT3aN0M1 clear cell RCC) were obtained from the UT Southwestern Kidney Cancer SPORE [53, 54] and maintained by serial passage. Tumors were induced by inserting tumor tissues from a donor tumor into the left kidney capsule of female NOD/SCID mice (Envigo).
(§1) OXi8007, synthesized by the Pinney Laboratory using published procedures, was dissolved in saline, verified to be in the pH range 7.3 to 7.5, and dosed at 250 mg/kg (IP). Cabozantinib (in PEG400 and ultrapure H2O (Milli-Q)) was administered at 3 mg/kg by oral gavage. Anti-PD-1 (10 mg/kg, Bio X Cell, Lebanon, NH, USA) and anti-CTLA-4 (5 mg/kg, Bio X Cell, Lebanon, NH) solutions were administered (IP) on the day before OXi8007 […].
We evaluated the longitudinal effects of OXi8007 alone and in combination with drugs currently favored for treating kidney cancer. For Renca-luc tumor-bearing mice, BLI was performed at least once a week to estimate tumor size, and mice were weighed weekly to adjust the dose as needed. Two treatment cohorts examined syngeneic orthotopic Renca-luc tumors in male BALB/c mice. Treatment started when the tumors reached about 1 × 10^6 photons/s peak total flux on BLI. The first cohort examined OXi8007 with cabozantinib. Mice were divided into four groups. Mice were assigned to groups as soon as there were sufficient to add the same numbers of animals to each group. The specific assignment was defined using the random number function in Excel. As such, each group included both faster- and slower-growing tumors. […]

[2] = system: subcutaneous Renca tumors; set-up: method as in PMID 33954115; conditions: 10 mg/kg, day 14; cited from earlier work
[3] = system: orthotopic Renca-luc tumors; test: Long-term therapy with OXi8007 and/or cabozantinib; type: in vivo, mouse
Experimental: as §1
We evaluated the longitudinal effects of OXi8007 alone and in combination with drugs currently favored for treating kidney cancer. For Renca-luc tumor-bearing mice, BLI was performed at least once a week to estimate tumor size, and mice were weighed weekly to adjust the dose as needed. Two treatment cohorts examined syngeneic orthotopic Renca-luc tumors in male BALB/c mice. Treatment started when the tumors reached about 1 × 10^6 photons/s peak total flux on BLI. The first cohort examined OXi8007 with cabozantinib. Mice were divided into four groups. Mice were assigned to groups as soon as there were sufficient to add the same numbers of animals to each group. The specific assignment was defined using the random number function in Excel. […] The second cohort was treated with CKIs and OXi8007 using four groups: Group 5 (OXi8007 + anti-PD-1 (10 mg/kg) + anti-CTLA-4 (5 mg/kg); n = 4), Group 6 (saline + anti-PD-1+ anti-CTLA-4; n = 3), Group 7 (saline + anti-PD-1; n = 3), and Group 8 (saline + anti-CTLA-4; n = 4). CKI antibodies were administered thrice weekly (M, W, F) for the first two weeks after the first treatment with OXi8007, which was administered twice weekly. […] Initial tumor growth was confirmed by palpation, and the mice were assigned to groups such that the first mouse with a confirmed tumor was assigned to Group 5, next to Group 6, etc., ensuring that all groups had both faster- and slower-growing tumors. […] Tumor size (BLI signal) and mouse body weights were compared using an ANOVA and multiple comparisons at a significance level of p < 0.05. Kaplan–Meier survival curves were compared using a non-parametric log-rank test using SAS software (SAS Institute Inc., SAS Viya for learners 4, Cary, NC, USA).

Q: For `COc1cc2nccc(Oc3ccc(NC(=O)C4(C(=O)Nc5ccc(F)cc5)CC4)cc3)c2cc1OC` [cabozantinib, reference compound], which Survival versus controls [1] is on record?
A: The Survival versus controls was “significantly enhanced survival”.

Q: And the Tumor size reduction [2]?
A: Its Tumor size reduction is 50%.

Q: What about the “Body weight versus untreated control mice” value ([3]; Renca-luc BALB/c mice, over course of treatment) of the same compound?
A: Its value is “significant weight loss”.

Q: And the “Tumor growth delay (BLI)” value ([3]; Renca-luc, versus control)?
A: The value was “significant tumor growth delay”.

Q: And the Median survival time ([3]; Renca-luc, OXi8007 250 mg/kg IP twice weekly, cabozantinib 3 mg/kg oral daily)?
A: Its Median survival time is 64 days.
